Source: the NIST ThermoML archive (doi:10.1021/je700254t)

Assay: xn = mol fraction of the nth substance listed
Details: 101.3 kPa, Liquid

c1ccccc1 [benzene] + CCCO
mass density [kg/m3]
Details | 288.15 K | 293.15 K | 298.15 K | 303.15 K | 308.15 K | 313.15 K
x2 = 0 | 884.246 | 878.918 | 873.582 | 868.233 | 862.871 | 857.498
x2 = 0.022 | 882.511 | 877.177 | 871.937 | 866.489 | 861.124 | 855.764
x2 = 0.0557 | 880.03 | 874.714 | 869.383 | 864.034 | 858.669 | 853.296
x2 = 0.0984 | 876.959 | 871.673 | 866.369 | 861.047 | 855.699 | 850.343
x2 = 0.1632 | 872.435 | 867.203 | 861.955 | 856.682 | 851.38 | 846.063
x2 = 0.2186 | 868.541 | 863.367 | 858.172 | 852.95 | 847.699 | 842.427
x2 = 0.2385 | 867.148 | 861.999 | 856.826 | 851.625 | 846.396 | 841.156
x2 = 0.3046 | 862.546 | 857.468 | 852.368 | 847.234 | 842.067 | 836.875
x2 = 0.3993 | 855.836 | 850.881 | 845.896 | 840.877 | 835.823 | 830.744
x2 = 0.4505 | 852.174 | 847.288 | 842.37 | 837.417 | 832.428 | 827.425
x2 = 0.5023 | 848.393 | 843.581 | 838.736 | 833.856 | 828.935 | 823.986
x2 = 0.6035 | 840.846 | 836.186 | 831.492 | 826.762 | 821.989 | 817.183
x2 = 0.66 | 836.494 | 831.916 | 827.312 | 822.69 | 817.981 | 813.261
x2 = 0.7035 | 833.115 | 828.615 | 824.081 | 819.512 | 814.9 | 810.256
x2 = 0.7453 | 829.801 | 825.366 | 820.902 | 816.4 | 811.856 | 807.285
x2 = 0.8016 | 825.211 | 820.875 | 816.507 | 812.105 | 807.61 | 803.184
x2 = 0.8447 | 821.474 | 817.209 | 812.998 | 808.593 | 804.229 | 799.833
x2 = 0.8981 | 816.954 | 812.786 | 808.589 | 804.36 | 800.093 | 795.804
x2 = 0.9495 | 812.375 | 808.313 | 804.141 | 800.008 | 795.838 | 791.644
